For nine molecules, Ki and IC50 results are on record in ChEMBL document CHEMBL1137865, “Modeling the binding affinities of beta-secretase inhibitors: application to subsite specificity” (Bioorg Med Chem Lett, 2004).

Starred links: 1 amine or outer side, 2 acyl side, 3 side chain; linkers in the order of their positions; H or OH if unused. Non-standard residues stand in square brackets, D forms with d. Residues, ends and D or L forms follow the SMILES beside them. *: point of attachment. LeuΨ(S-CHOHCH2)Ala = CC(C)C[C@H](N[*:1])[C@@H](O)C[C@@H](C)C(=O)[*:2]; X1 = O=C(O)CC[C@H](N*)C(=O)C[C@@H](Cc1ccccc1)C(=O)O

Sequence of Beta-secretase 1 (P56817 whole entry): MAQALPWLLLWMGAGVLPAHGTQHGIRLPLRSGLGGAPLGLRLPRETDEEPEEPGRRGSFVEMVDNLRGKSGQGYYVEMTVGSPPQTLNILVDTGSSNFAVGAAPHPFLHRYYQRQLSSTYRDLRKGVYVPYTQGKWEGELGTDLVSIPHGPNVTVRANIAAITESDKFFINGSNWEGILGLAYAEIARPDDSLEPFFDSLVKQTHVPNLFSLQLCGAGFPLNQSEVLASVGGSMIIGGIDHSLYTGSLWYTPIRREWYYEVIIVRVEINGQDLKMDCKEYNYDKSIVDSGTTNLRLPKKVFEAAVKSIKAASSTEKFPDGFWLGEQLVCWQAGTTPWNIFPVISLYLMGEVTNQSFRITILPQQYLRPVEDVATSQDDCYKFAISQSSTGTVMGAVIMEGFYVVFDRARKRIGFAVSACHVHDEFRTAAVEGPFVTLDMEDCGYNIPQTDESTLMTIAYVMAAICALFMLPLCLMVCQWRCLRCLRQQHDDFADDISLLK

The test addresses Beta-secretase 1 (Homo sapiens, UniProt P56817). Description: Binding affinity against Beta-secretase.
As a reminder, the Ki is the dissociation constant of the complex between target and ligand, obtained from inhibition or displacement. High values mean weaker binding, low ones tighter binding. In the case of `CC(C)C[C@H](NCC(=O)[C@H](CS(C)(=O)=O)NC(=O)OC(C)(C)C)C(O)CC(C)C(=O)NC(C(=O)NCc1ccccc1)C(C)C` (some centres undefined), the affinity corresponds to a Ki of 1.13 µM.
One may read the IC50 as the concentration that inhibits the measured activity by half. A lower IC50 goes with higher potency. `CCCN(CCC)C(=O)c1cccc(C(=O)N[C@@H](Cc2cc(F)cc(F)c2)[C@@H](O)C[C@@H](CC)C(=O)NCc2ccccc2)c1` displayed a half-maximal inhibitory concentration (IC50) of 1.4 µM.
`CC(C)C[C@H](NC(=O)[C@@H](N)CCC(=O)O)C(=O)N[C@@H](CC(=O)O)C(=O)N[C@@H](CC(C)C)[C@@H](O)C[C@@H](C)C(=O)N[C@H](C(=O)N[C@@H](CCC(=O)O)C(=O)C[C@@H](Cc1ccccc1)C(=O)O)C(C)C` (H-ELD[LeuΨ(S-CHOHCH2)Ala]V-X1) displayed an inhibition constant (Ki) of 0.00032 µM.
Take `CCCN(CCC)C(=O)c1cccc(C(=O)N[C@@H](Cc2cc(F)cc(F)c2)[C@@H](O)C[C@@H](CC)C(=O)NCCCCC(=O)O)c1`: the concentration for half-maximal inhibition (IC50) stood at 0.4 µM.
The molecule `CC(C)C[C@H](NCC(=O)[C@H](CC(N)=O)NC(=O)OC(C)(C)C)C(O)CC(C)C(=O)NC(C(=O)NCc1ccccc1)C(C)C` (some centres undefined) gave an inhibition constant Ki of 3.13 µM.
For `CCCN(CCC)C(=O)c1cccc(C(=O)N[C@@H](Cc2cc(F)cc(F)c2)[C@@H](O)C[C@@H](CC)C(=O)NCCC(=O)O)c1`, the IC50 came to 2.8 µM.
On to `CC(C)C[C@H](NCC(=O)[C@H](CC(N)=O)NC(=O)OC(C)(C)C)C(O)CC(C)C(=O)NC(C)C(=O)NCc1ccccc1` (some centres undefined), for which the inhibitory constant (Ki) is 22.4 µM.
The molecule `CCCN(CCC)C(=O)c1cccc(C(=O)N[C@@H](Cc2cc(F)cc(F)c2)[C@@H](O)C[C@@H](CC)C(=O)NC[C@H]2CC[C@H](C(=O)O)CC2)c1` came in with an IC50 of 0.05 µM.
Same read-out and setting: to `CCCN(CCC)C(=O)c1cccc(C(=O)N[C@@H](Cc2cc(F)cc(F)c2)[C@@H](O)C[C@@H](CC)C(=O)N[C@H]2C[C@@H](OC)C[C@@H](OC)C2)c1` belongs 6.6 µM.
